# From US10323028B2, “1,3,4-thiadiazole compounds and their use in treating cancer” (AstraZeneca AB, priority 2015, dated 2019)
# Like-named read-outs stand apart in the source and are kept apart here.
# Experiments:
# GLS1 = GLS1 (Homo sapiens (Human), UniProt O94925); assay: GLS Enzyme Potency Assay (Glutamate Oxidase/AmplexRed coupled assay); type: biochemical
# Description: (§1) The following assays were used to measure the effects of the compounds described herein: a) GLS Enzyme Potency Assay; b) GLS Cell Potency Assay; c) GLS Cell Proliferation Assay. During the description of the assays, generally: • i. The following abbreviations have been used: CO2=Carbon dioxide; DMEM=Dulbecco's Modified Eagle Medium; DMSO=Dimethyl sulphoxide; EDTA=Ethylenediaminetetraacetic acid; EGTA=Ethylene glycol tetraacetic acid; FCS=Foetal calf serum; h=Hour(s); NBS=Non-binding surface; SDS=Sodium dodecyl sulphate; TRIS=Tris(Hydroxymethyl)aminomethane. • ii. IC50 values were calculated using a smart fitting model in Genedata.
# Assay a): GLS Enzyme Potency Assay
# A Glutamate Oxidase/AmplexRed coupled assay was used to measure the ability of compounds to bind to and inhibit the activity of GLS1 in vitro. […] GLS1 was diluted to 2× working concentration and incubated at room temperature to allow the tetrameric/dimeric forms to reach steady state. Assay measurements were performed in buffer comprising 50 mM TRIS pH 7.8, 100 mM NaPO4, pH 7.8, 0.001% v/v Tween20. Purified recombinant GLS1 protein was diluted in assay buffer to 12 nM and pre-incubated at room temperature for 30 minutes. […] DMSO concentration was maintained at 2% by back filling with DMSO solution. 3 μL of diluted GLS1 protein (12 nM) was then dispensed into each well using a BioRaptr automated dispenser (Beckman-Coulter) and incubated for 15 minutes at room temperature. 3 μL of 100 mM glutamine diluted in assay buffer was then added and the reaction incubated at room temperature for 60 minutes. […] An artefact version of the assay where the 6His tagged GLS protein and glutamine were replaced with assay buffer was also used to rule out non specific effects on the assay components.
# [1] = molecular target: cellular GLS activity in PC3 cells (Homo sapiens (Human), UniProt O94925); assay: GLS Cell Potency Assay (PC3 coupled assay measuring cellular glutamate depletion); type: cell-based; conditions: PC3 cells, 6 h incubation, glutamate depletion; read-out: Assay b) GLS cell MOA Mean IC50
# Description: as §1
# Assay b): GLS Cell Potency Assay
# Compounds were assessed for their potential to inhibit cellular GLS activity by use of a PC3 coupled assay measuring cellular glutamate depletion. […] DMSO concentration was maintained at 0.3% by back filling with DMSO solution. PC3 cells were grown in phenol free DMEM, 10% dialyzed FCS, 2 mM glutamine and following dispersal by trypsinisation were plated at 5.6×10^3 cells per well in 40 μl of growth medium directly into the 384 well assay plates containing dispensed compound. After incubation for 6 h at 37° C., 5% CO2 growth media was aspirated and cells lysed in 15 μl of buffer containing 10 mM TRIS pH7.4, 100 mM NaCl, 1 mM EDTA, 1 mM EGTA, 1 mM NaF, 20 mM Na4P2O7, 2 mM Na3VO4, 1% Triton X-100, 10% glycerol, 0.1% SDS and 0.5% deoxycholate.
# NCI-H1703 cells = assay: GLS Cell Proliferation Assay (NCI-H1703 cell proliferation); type: cell-based
# Description: as §1
# Assay c): GLS Cell Proliferation Assay
# The ability of compounds to inhibit cell growth was measured using a 384 well plate NCI-H1703 cell proliferation assay. NCI-H1703 cells were grown in phenol red free RPMI1640, 10% FCS and 2 mM glutamine and seeded at a density of 750 cells per well in 40 μl of growth medium into clear-bottom 384 well assay plates (Corning product code 3712) and incubated for 24 h at 37° C., 5% CO2. […] DMSO concentration was maintained at 0.3% by back filling with DMSO solution. Plates were incubated for 5 days at 37° C., 5% CO2, Sytox Green and Saponin added to final concentration of 2 μM and 0.25% respectively and incubated for 6 h prior to analysis. […] IC50 values were calculated by curve fitting to max inhibition of day zero growth using GeneData software analysis.
# [2] = 6His tagged GLS protein (amino acids 63-669), recombinant; read-out: Assay a) enz IC50
# [3] = NCI-H1703 cells, 5 days; read-out: Assay c) Prolif Mean IC50
# [4] = Homo sapiens, NCI-H1703, 120 h, NCI-H1703 cells, 5 days; read-out: Assay c) Prolif Mean IC50
# Sequence of GLS1 (O94925 63-669): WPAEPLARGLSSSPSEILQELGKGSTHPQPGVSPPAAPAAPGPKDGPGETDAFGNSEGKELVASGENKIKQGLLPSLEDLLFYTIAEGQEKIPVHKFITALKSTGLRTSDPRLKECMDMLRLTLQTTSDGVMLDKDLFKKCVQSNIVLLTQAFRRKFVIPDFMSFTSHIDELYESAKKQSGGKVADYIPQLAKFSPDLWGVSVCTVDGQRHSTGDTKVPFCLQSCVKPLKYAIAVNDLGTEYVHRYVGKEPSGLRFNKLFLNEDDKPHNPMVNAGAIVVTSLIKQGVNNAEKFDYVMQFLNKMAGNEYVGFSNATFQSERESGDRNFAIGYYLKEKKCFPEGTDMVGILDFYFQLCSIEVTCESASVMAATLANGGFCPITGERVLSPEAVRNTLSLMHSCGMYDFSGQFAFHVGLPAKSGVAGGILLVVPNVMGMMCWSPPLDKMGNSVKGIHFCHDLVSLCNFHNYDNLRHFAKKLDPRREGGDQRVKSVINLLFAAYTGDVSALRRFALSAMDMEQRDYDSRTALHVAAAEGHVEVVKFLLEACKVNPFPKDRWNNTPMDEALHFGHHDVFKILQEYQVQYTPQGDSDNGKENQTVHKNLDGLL
# Sequence of cellular GLS activity in PC3 cells (O94925 73-669): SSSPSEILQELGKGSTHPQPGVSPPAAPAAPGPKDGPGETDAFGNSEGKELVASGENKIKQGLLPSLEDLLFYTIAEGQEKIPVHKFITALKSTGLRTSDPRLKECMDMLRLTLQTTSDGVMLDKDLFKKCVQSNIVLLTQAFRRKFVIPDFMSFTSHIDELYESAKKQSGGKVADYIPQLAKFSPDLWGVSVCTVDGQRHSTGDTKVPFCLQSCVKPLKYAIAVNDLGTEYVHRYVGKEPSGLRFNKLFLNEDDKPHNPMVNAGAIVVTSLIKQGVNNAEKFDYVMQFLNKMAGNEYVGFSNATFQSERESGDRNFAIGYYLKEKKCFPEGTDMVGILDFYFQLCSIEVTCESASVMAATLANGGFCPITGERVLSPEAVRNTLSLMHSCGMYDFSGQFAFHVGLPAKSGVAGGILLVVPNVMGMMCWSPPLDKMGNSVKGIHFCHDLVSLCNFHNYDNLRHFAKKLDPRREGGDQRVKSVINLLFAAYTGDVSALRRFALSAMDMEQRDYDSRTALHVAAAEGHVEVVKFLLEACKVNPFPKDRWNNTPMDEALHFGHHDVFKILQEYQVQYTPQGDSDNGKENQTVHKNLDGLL
Structure (SMILES),IC50 (GLS1; [2]) [nM],IC50 [1] [nM],IC50 (NCI-H1703 cells; [3]) [nM],IC50 (NCI-H1703 cells; [4]) [nM],IC50 (GLS1; read-out: Assay a) enz IC50) [nM]
"COC(C(=O)Nc1nnc(N[C@@H]2CCN(c3nccnn3)C2)s1)c1cccc(C2COC2)c1 (single isomer, unassigned) [Example 24]",52.6,3.48,29.1,–,–
"CO[C@H](C(=O)Nc1nnc(N[C@@H]2CCN(c3cccnn3)C2)s1)c1cccc(N2CC(F)C2)c1 (single isomer, unassigned) [Example 1(a)]",20.6,0.83,–,–,–
"CCOC(C(=O)Nc1nnc(N[C@@H]2CCN(c3cccnn3)C2)s1)c1cccc(N2CC(F)(F)C2)c1 (single isomer, unassigned) [Example 29]",51.1,0.404,1.96,–,–
"COc1cc(OC)cc(C(OC)C(=O)Nc2nnc(N[C@@H]3CCN(c4cccnn4)C3)s2)c1 (stereo partly drawn) [Example 23, 2-(3,5-dimethoxyphenyl)-2-methoxy-N-[5-[[(3R)-1-pyridazin-3-ylpyrrolidin-3-yl]amino]-1,3,4-thiadiazol-2-yl]acetamide]",48.2,8.85,–,59.1,–
"COc1cc(OC)cc([C@@H](OC)C(=O)Nc2nnc(N[C@@H]3CCN(c4cccnn4)C3)s2)c1 [Example 21(b), (2R)-2-(3,5-Dimethoxyphenyl)-2-methoxy-N-[5-[[(3R)-1-pyridazin-3-ylpyrrolidin-3-yl]amino]-1,3,4-thiadiazol-2-yl]acetamide]",48.2,8.85,–,59.1,–
"CCO[C@@H](C(=O)Nc1nnc(N[C@@H]2CCN(c3cccnn3)C2)s1)c1cccc(N2CC(OC)C2)c1 [Example 22(b), (2R)-2-ethoxy-2-[3-(3-methoxyazetidin-1-yl)phenyl]-N-[5-[[(3R)-1-pyridazin-3-ylpyrrolidin-3-yl]amino]-1,3,4-thiadiazol-2-yl]acetamide]",–,10.6,–,178,–
"CCOC(C(=O)Nc1nnc(N[C@@H]2CCN(c3cccnn3)C2)s1)c1cccc(N2CC(F)(F)C2)c1 (single isomer, unassigned) [Example 30]",1370,3.22,37.7,–,–
"COC(C(=O)Nc1nnc(N[C@@H]2CCN(c3ccc(F)nn3)C2)s1)c1cccc(N2CC(F)C2)c1 (single isomer, unassigned) [Example 28]",195,51.5,262,–,–
"COC(C(=O)Nc1nnc(N[C@@H]2CCN(c3ccc(F)nn3)C2)s1)c1cccc(N2CC(F)C2)c1 (single isomer, unassigned) [Example 27]",149,1.4,13.5,–,–
"COC(C(=O)Nc1nnc(N[C@@H]2CCN(c3ccc(C)nn3)C2)s1)c1cccc(N2CC(F)C2)c1 (single isomer, unassigned) [Example 36]",612,21.8,394,–,–
"COC(C(=O)Nc1nnc(N[C@@H]2CCN(c3nccnn3)C2)s1)c1cccc(C2COC2)c1 (single isomer, unassigned) [Example 25]",1840,86.1,831,–,–
"COC(C(=O)Nc1nnc(N[C@@H]2CCN(c3ccc(C)nn3)C2)s1)c1cccc(N2CC(F)(F)C2)c1 (stereo partly drawn) [Example 39, 2-[3-(3,3-difluoroazetidin-1-yl)phenyl]-2-methoxy-N-[5-[[(3R)-1-(6-methylpyridazin-3-yl)pyrrolidin-3-yl]amino]-1,3,4-thiadiazol-2-yl]acetamide]",130,0.405,5.94,–,–
"CO[C@H](C(=O)Nc1nnc(N[C@@H]2CCN(c3cccnn3)C2)s1)c1cccc(N2CC(F)C2)c1 (single isomer, unassigned) [Example 1(b)]",–,18.4,–,–,72.6
"COc1cc(OC)cc(C(OC)C(=O)Nc2nnc(N[C@@H]3CCN(c4cccnn4)C3)s2)c1 (single isomer, unassigned) [Example 44]",48.2,8.85,59.1,–,–
"COc1cc(OC)cc(C(OC)C(=O)Nc2nnc(N[C@@H]3CCN(c4cccnn4)C3)s2)c1 (single isomer, unassigned) [Example 43]",20,0.292,2.24,–,–
"COc1cc(OC)cc([C@H](OC)C(=O)Nc2nnc(N[C@@H]3CCN(c4cccnn4)C3)s2)c1 [Example 21(a), (2S)-2-(3,5-Dimethoxyphenyl)-2-methoxy-N-[5-[[(3R)-1-pyridazin-3-ylpyrrolidin-3-yl]amino]-1,3,4-thiadiazol-2-yl]acetamide]",20,0.292,–,2.24,–
"CCOC(C(=O)Nc1nnc(N[C@@H]2CCN(c3cccnn3)C2)s1)c1cccc(N2CC(F)C2)c1 (single isomer, unassigned) [Example 31]",96.8,0.573,3.21,–,–
"COC(C(=O)Nc1nnc(N[C@@H]2CCN(c3cccnn3)C2)s1)c1ccc(F)c(N2CC(F)(F)C2)c1 (stereo partly drawn) [Example 37, 2-[3-(3,3-difluoroazetidin-1-yl)-4-fluoro-phenyl]-2-methoxy-N-[5-[[(3R)-1-pyridazin-3-ylpyrrolidin-3-yl]amino]-1,3,4-thiadiazol-2-yl]acetamide]",147,0.556,21.1,–,–
"COC(C(=O)Nc1nnc(N[C@@H]2CCN(c3ccc(C)nn3)C2)s1)c1cccc(N2CC(F)C2)c1 (single isomer, unassigned) [Example 35]",77,1.21,9.03,–,–
"CCOC(C(=O)Nc1nnc(N[C@@H]2CCN(c3cccnn3)C2)s1)c1cccc(N2CC(OC)C2)c1 (stereo partly drawn) [Example 34, 2-ethoxy-2-[3-(3-methoxyazetidin-1-yl)phenyl]-N-[5-[[(3R)-1-pyridazin-3-ylpyrrolidin-3-yl]amino]-1,3,4-thiadiazol-2-yl]acetamide]",–,10.6,18,–,–
"COc1cc(OC)cc(C(OC)C(=O)Nc2nnc(N[C@@H]3CCN(c4ccc(F)nn4)C3)s2)c1 (stereo partly drawn) [Example 26, 2-(3,5-dimethoxyphenyl)-N-[5-[[(3R)-1-(6-fluoropyridazin-3-yl)pyrrolidin-3-yl]amino]-1,3,4-thiadiazol-2-yl]-2-methoxy-acetamide]",23.5,0.334,–,4.2,–
"COC[C@H](C(=O)Nc1nnc(N[C@@H]2CCN(c3ccc(C)nn3)C2)s1)c1ccccc1 (single isomer, unassigned) [45(b)]",–,11.3,–,–,146
